From PubChem BioAssay AID1324 (NMMLSC, 2008) come the findings set out here.

As usually defined, the EC50 is the concentration needed to bring the measured effect to its halfway point.

For this assay, the target named is glutathione S-transferase (GST-GSH binding). In words: GST–glutathione interaction disruption – biochemical, multiplex beads, flow cytometry, HPSMTB buffer, profiling panel (AID 1324).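 On all read-outs here: glutathione beads loaded with GST-green fluorescent protein and no fluorescent Bim peptide.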 Particulars: multiplex bead flow cytometry, MCF; for percent span inhibition: stronger effect = higher value, concentration not given here. On the technique in general: A flow cytometer gives signals particle by particle.

Calls of active or inactive are those of the source. How the calls were made is not given here.

Regarding `N#C/C(=C(/O)CN1CCN(c2ccccc2F)CC1)c1nc(-c2ccccc2)cs1`, the percent span inhibition entry is “inactive”. In the case of `O=C(c1ccccc1)c1ccc2nc(-c3ccco3)c(-c3ccco3)nc2c1`, the percent span inhibition result is “inactive”. Take `CCc1cccc(CC)c1NC(=S)N1CCn2cccc2C1c1cccnc1` (configuration not stated): the percent span inhibition entry was “inactive”. In the case of `Cc1cc(Cl)c(S(=O)(=O)NCC2CCCO2)cc1OCC(N)=O` (configuration not stated), the percent span inhibition entry is “inactive”. Take `O=C(CNC(=O)c1ccco1)NCC(=O)OCc1ccccc1Br`: the percent span inhibition result is “inactive”. As to `Nc1ccc(Nc2nc(-c3ccncc3)cs2)cc1`, the percent span inhibition result is “inactive”.

For the compound `CCCCCCc1cc2cc(C(=O)Nc3ccccc3)c(=O)oc2cc1O`, the percent span inhibition result is “inactive”. As to `Cn1c(=O)c2c(nc(NCCO)n2CCc2ccccc2)n(C)c1=O`, the percent span inhibition entry is “inactive”. For the compound `CNc1ccc(Br)cc(C(=O)/C=C/c2cccc(OC)c2)c1=O`, the percent span inhibition result was “inactive”. Turning to `CCN(CC)c1ccc(NC(=O)c2cccc(C)c2)cc1S(=O)(=O)Nc1ccccc1OC`, the percent span inhibition result was “inactive”. Consider `CCc1ccc(NC(=O)CC2NCCNC2=O)cc1` (configuration not stated), for which the percent span inhibition result was “inactive”. For `Cc1onc(-c2ccccc2Cl)c1C(=O)Nc1nn[nH]n1`, the percent span inhibition entry was “inactive”. On to `CNc1nc2ccccc2n1/N=C/c1cccc(OC)c1OC`, for which the percent span inhibition entry is “inactive”. For the compound `CC1Cc2ccccc2N1C(=O)CSc1nnnn1-c1ccc2c(c1)OCCO2` (configuration not stated), the percent span inhibition entry is “inactive”. Consider `COc1ccc(N2CCN(C(CNS(=O)(=O)c3ccc4c(c3)OCCO4)c3ccco3)CC2)cc1` (configuration not stated), for which the percent span inhibition result was “inactive”.

For the compound `CCN1C(=O)/C(=C\C=C2/C=CC=CN2CC)SC1=S`, the percent span inhibition result is “inactive”.

In the case of `O=c1c2c(n3nnnc3n1Cc1ccccc1)-c1ccccc1CC21CCCC1`, the percent span inhibition entry is “inactive”. For `O=[N+]([O-])c1ccc(N/N=C/c2ccc(O)c(O)c2O)c(S(=O)(=O)N2CCOCC2)c1`, the EC50 entry is “inactive”. In the case of `Cc1cccc(N2CCN(C(=S)Nc3ccc4nc(N5CCN(C)CC5)cc(C)c4c3)CC2)c1C`, the percent span inhibition result is “inactive”. Regarding `Cc1cc(OCc2cn3cccnc3n2)ccc1Cl`, the percent span inhibition result is “inactive”.

Take `COCCNc1nc(=S)[nH]c2cc(OC)c(OC)cc12`: the percent span inhibition entry was “inactive”. As to `Nc1c(C(=O)NCc2ccco2)sc2nc3c(cc12)C(=O)CCC3`, the percent span inhibition result was “inactive”. `COc1ccc(NC(=O)c2sccc2SCc2cccc(C(F)(F)F)c2)cc1`: the percent span inhibition result was “inactive”. Take `Cc1cc(C)n(CC(=O)N/N=C/c2cccc([N+](=O)[O-])c2)n1`: the percent span inhibition result is “inactive”.

As to `O=C(Nc1ccc2nc(-c3ccco3)c(-c3ccco3)nc2c1)NC1CC1`, the half-maximal effective concentration (EC50) was 8.3 µM. In the case of `CC(NC(=O)Nc1ccccn1)N1C(=O)C2C3C=CC(C3)C2C1=O` (configuration not stated), the percent span inhibition result is “inactive”. In the case of `Cc1ccccc1-n1nc(SCC(=O)O)sc1=S`, the percent span inhibition result is “inactive”.

Take `O=C(NCCCN1CCN(CCCNC(=O)c2cc([N+](=O)[O-])ccc2Cl)CC1)c1cc([N+](=O)[O-])ccc1Cl`: the percent span inhibition entry was “inactive”. On to `COc1ccc(CC(=O)Nc2ccc3nc(C)sc3c2)cc1OC`, for which the percent span inhibition result was “inactive”. With `Cc1[nH]c2ccccc2c1C(=O)COC(=O)c1c(-c2c(F)cccc2Cl)noc1C`, the percent span inhibition entry is “inactive”.

On to `COC(=O)c1sc2nc[nH]c(=O)c2c1C`, for which the EC50 result is “inactive”. Take `C/C(=N\NC(=O)Cn1nc(C)c([N+](=O)[O-])c1C)c1ccc(O)cc1`: the percent span inhibition result is “inactive”. Take `N/C(=N\OC(=O)CCC1CCCC1)c1ccncc1`: the percent span inhibition entry is “inactive”.

For the compound `CCOc1cc(/C=N/NC(N)=O)ccc1OCC(=O)Nc1ccc(C)c(C)c1`, the percent span inhibition result was “inactive”. With `COc1ccc(-n2c(NC(=O)c3ccco3)c(C#N)c3nc4ccccc4nc32)cc1`, the percent span inhibition entry was “inactive”. Same read-out and setting: the entry for `Cc1cc(N2CCN(C)CC2)nc2ccc(NC(=S)N3CCC4(CC3)OCCO4)cc12` is “inactive”.

As for `C=CS(=O)(=O)c1sc(Cl)c(N2CCOCC2)c1[N+](=O)[O-]`, the percent span inhibition result is “inactive”. `CN1/C(=C\C(=O)Nc2ccc(Cl)cc2)C(C)(C)c2ccccc21`: the percent span inhibition entry was “inactive”.

As for `CCOC(=O)C1=C(Cc2ccc(OC)cc2)C(=O)c2ccccc2C1=O`, the percent span inhibition result is “inactive”.

As to `CC1=C2C(CCS2(=O)=O)CC2(C1)C(=O)OC(C)(C)OC2=O` (configuration not stated), the percent span inhibition entry was “inactive”. On the same count and under the same terms, in the case of `COc1ccccc1N(C)S(=O)(=O)c1ccc(C(=O)OCC(N)=O)cc1` it was “inactive”; in that of `O=C(NCC1CCCO1)c1ccc2c(=O)n(-c3ccc(F)cc3)c(=S)[nH]c2c1` (configuration not stated), “inactive”. For the compound `O=C(CNC(=O)c1ccc(S(=O)(=O)N2CCCC2)cc1)N/N=C/c1ccc(Cl)cc1Cl`, the percent span inhibition result was “inactive”. `CC(C)(C)OC(=O)N1CCN(C(=O)[C@H](Cc2ccc(O)cc2)n2cc(CCO)nn2)CC1`: the percent span inhibition entry is “inactive”. The same measure, in the same setting: the entry for `CCOC(=O)c1[nH]cnc1C(=O)NC(C)C` is “inactive”; for `CN(Cc1ccccc1)c1nc2c(c(=O)[nH]c(=O)n2C)n1C` it is “inactive”; for `CC(=O)N1CCN(C(=O)c2ccc(-n3c(C)ccc3C)cc2)CC1` it is “inactive”.

In the case of `O=C(N/N=C/c1ccncc1)c1cccc(NC(=O)c2ccccc2Cl)c1`, the percent span inhibition entry was “inactive”. Turning to `COc1cc(NC(=S)NCCCO)c(OC)cc1Cl`, the percent span inhibition entry was “inactive”. Still for that read-out and setting: the entry for `CC(C)(C)C(=O)NC(NC(=S)Nc1ccc(S(N)(=O)=O)cc1)C(Cl)(Cl)Cl` (configuration not stated) is “inactive”. Consider `COc1ccc(C(=O)Nc2ccc(C(=O)OCC(=O)c3cccc4ccccc34)cc2)cc1`, for which the percent span inhibition result was “inactive”. In the case of `Cc1ccc(NC2=C(Cl)C(=O)c3ccccc3C2=O)cc1`, the percent span inhibition result is “inactive”.

Consider `N#Cc1cc(-c2ccccc2)nn1-c1ccccc1`, for which the percent span inhibition entry was “inactive”. For `CCOC(=O)c1cc2c(=O)n3ccccc3nc2n(Cc2ccco2)c1=NC(=O)c1ccccc1OC`, the percent span inhibition result is “inactive”. On to `COc1ccc(CC(=O)Nc2ccc(C(=O)Nc3nccs3)cc2)cc1OC`, for which the percent span inhibition result is “inactive”. For the compound `O=C1CSc2ccc(C(=O)Nc3cccc(S(=O)(=O)Nc4ccc(Br)cc4)c3)cc2N1`, the percent span inhibition result was “inactive”. Regarding `Cn1c(=O)c2cc(S(=O)(=O)Nc3cc(C(=O)O)cc(C(=O)O)c3)ccc2n(C)c1=O`, the percent span inhibition entry is “inactive”. Turning to `CCOC(=O)CSC1=NC(=O)/C(=C/c2ccc(OC)cc2)S1`, the percent span inhibition result was “inactive”. For the compound `O=C(NCc1ccccn1)c1ccc2nc(-c3ccco3)c(-c3ccco3)nc2c1`, the percent span inhibition entry was “inactive”.

Take `CCOC(=O)C1(CC/C(C)=N\NC(N)=O)CC(C)(C)OC1=O` (configuration not stated): the percent span inhibition result was “inactive”. With `COc1ccc(N2CCN(CCCNC(=O)CCCn3c(=O)[nH]c4ccsc4c3=O)CC2)cc1`, the percent span inhibition result is “inactive”. Take `O=C(COCC(=O)NCc1ccccc1)NCc1ccccc1`: the percent span inhibition entry is “inactive”. With `CC1=NN(c2ccc(C)cc2)C(=O)/C1=C\c1ccc(Br)s1`, the percent span inhibition result is “inactive”.

As to `COc1ccc(NC(=O)Cc2c(F)cccc2Cl)c(OC)c1`, the percent span inhibition result was “inactive”. With `COc1cc(/C=C2\S/C(=N/S(=O)(=O)c3ccccc3)NC2=O)c([N+](=O)[O-])cc1OC`, the percent span inhibition result was “inactive”. Turning to `COC(=O)C1C2c3ccccc3OC1(C)N=c1s/c(=C/c3cnn(C)c3C)c(=O)n12` (configuration not stated), the percent span inhibition entry was “inactive”. Still for that read-out and setting: the entry for `Cc1ccc(-n2c(CSc3nc(C)cc(C)n3)nnc2SCC(=O)NCc2ccco2)cc1` is “inactive”; for `c1coc(C2=Nc3cccc4cccc(c34)N2)c1` it is “inactive”. Turning to `COc1ccc(OC)c(NC(=O)CCCN2C(=S)NC(C)(C)CC2C)c1` (configuration not stated), the percent span inhibition entry was “inactive”. Still for that read-out and setting: the entry for `COc1cccc2c1C(=O)C=C(C)C2=O` is “inactive”; for `Cc1ccc(-c2cc(-c3ccc(Cl)cc3)c(C#N)c(N)n2)o1` it is “inactive”. `CCN1CCN(CC(=O)c2c[nH]c3ccc(C)cc23)CC1`: the percent span inhibition entry is “inactive”. Regarding `CCOc1ccc(C(=O)Nc2nnn(CC)n2)cc1`, the percent span inhibition result was “inactive”. In the case of `CCCn1c(N2CCN(C)CC2)nc2c1c(=O)[nH]c(=O)n2C`, the percent span inhibition result is “inactive”.

For `CC(=O)NC(=O)Nc1sc(=S)n(C)c1C`, the percent span inhibition entry is “inactive”. As to `C/C(=N/NC(=O)c1cc(O)c(O)c(O)c1)c1ccc([N+](=O)[O-])cc1`, the percent span inhibition entry is “inactive”.

`CCSc1nnc(NC(=O)c2c(-c3ccccc3Cl)noc2C)s1`: the percent span inhibition entry was “inactive”. The same measure, in the same setting: the entry for `CC1CC2=C(NC(=S)NC2c2ccccc2F)/C(=C/c2ccccc2F)C1` (configuration not stated) is “inactive”; for `Cc1ccc(-c2nnc(Cc3ccc(Cl)cc3)o2)cc1` it is “inactive”; for `O=S1(=O)N=C(N(CCO)/N=C/C=C/c2ccccc2)c2ccccc21` it is “inactive”. As to `CN=c1scc(-c2cccs2)n1/N=C/c1ccc(O)c(O)c1O`, the percent span inhibition entry was “inactive”. As for `O=C(/C=C/c1c(F)cccc1Cl)Nc1ccncc1`, the percent span inhibition result was “inactive”.

Consider `Cc1ccc(NC(=O)CC2S/C(=N/N=C/c3c[nH]c4ccccc34)NC2=O)cc1` (configuration not stated), for which the percent span inhibition result was “inactive”. For `O=[N+]([O-])c1c(NCCO)cc(Sc2nc3ccccc3s2)c2nonc12`, the percent span inhibition entry was “inactive”. On the same count and under the same terms, in the case of `COc1ccc(CCNC(=O)c2cc(-c3ccccn3)nc3c(Cl)cccc23)cc1OC` it was “inactive”. The same measure, in the same setting: in the case of `CNCc1ccccc1Sc1ccc(O)c(O)c1` it was “inactive”. For `Brc1ccc2ncnc(Nc3ccc(N4CCOCC4)cc3)c2c1`, the percent span inhibition entry is “inactive”.
